From ChEMBL document CHEMBL5247641, “Discovery of Potent DYRK2 Inhibitors with High Selectivity, Great Solubility, and Excellent Safety Properties for the Treatment of Prostate Cancer” (J Med Chem, 2023)
Active and inactive are the calls of the source. The rule behind the calls is not given here.

How the values were obtained:
[1] = Metabolic stability in human liver microsomes assessed as intrinsic clearance in presence of NADPH incubated up to 60 mins by LC-MS/MS analysis; assay type: ADME, Microsome; settings: read-out: CLH
[2] = target: T1, Dual specificity tyrosine-phosphorylation-regulated kinase 2 (Homo sapiens) (UniProt Q92630); assay: Inhibition of DYRK2 in human DU-145 cells assessed as reduction in 4E-BP1 phosphorylation at 2 to 8 uM incubated for 24 hrs by Western blot analysis; assay type: cell-based; settings: dose 2-8 µM
T1 sequence (whole entry): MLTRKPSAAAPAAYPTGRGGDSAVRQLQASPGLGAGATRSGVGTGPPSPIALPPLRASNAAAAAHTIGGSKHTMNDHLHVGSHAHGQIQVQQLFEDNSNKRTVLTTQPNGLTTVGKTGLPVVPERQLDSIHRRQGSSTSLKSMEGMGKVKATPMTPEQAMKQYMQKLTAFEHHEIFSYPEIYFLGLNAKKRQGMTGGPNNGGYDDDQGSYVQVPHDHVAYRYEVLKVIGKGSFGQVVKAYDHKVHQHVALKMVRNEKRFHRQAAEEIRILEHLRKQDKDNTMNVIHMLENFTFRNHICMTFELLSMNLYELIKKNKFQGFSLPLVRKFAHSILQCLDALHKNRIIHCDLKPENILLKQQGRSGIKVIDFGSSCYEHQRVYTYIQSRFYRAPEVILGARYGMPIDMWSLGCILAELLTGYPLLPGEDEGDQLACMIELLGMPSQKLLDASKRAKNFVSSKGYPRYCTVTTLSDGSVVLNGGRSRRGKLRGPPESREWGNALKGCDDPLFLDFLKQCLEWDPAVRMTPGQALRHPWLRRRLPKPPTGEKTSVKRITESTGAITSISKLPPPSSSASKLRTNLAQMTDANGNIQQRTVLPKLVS

DU-145 [3] = assay: Antitumor activity against human DU-145 xenografted in BALB/c nude mouse as upregulation of p27 level in tumor at 100 to 200 mg/kg,po administrated once daily for 21 days by Western blot analysis; assay type: functional, organism-based; settings: dose 100-200 mg/kg, time 21.0 day
DU-145 [4] = assay: Antiproliferative activity against human DU-145 cells assessed as cell growth inhibition at 2 to 8 uM incubated for 5 days by microplate reader analysis; assay type: functional, cell-based; settings: dose 2-8 µM, time 5.0 day
[5] = Acute toxicity in ICR mouse assessed as appearance of lesions in heart at 5000 to 10000 mg/kg,po and measured after 14 days by H and E staining based microscopic analysis; assay type: organism-based; settings: in vivo, 336 h, dose 5000-10000 mg/kg, time 14 day
DU-145 [6] = assay: Induction of cell cycle arrest in human DU-145 cells assessed as accumulation of cells at G1 phase at 2 uM incubated for 24 hrs by propidium iodide based flow cytometric analysis (Rvb= 53.46%); assay type: functional
[7] = Thermodynamic water solubility of compound by HPLC anlaysis; assay type: physicochemical; settings: read-out: Therm_solubility
[8] = Acute toxicity in ICR mouse assessed as appearance of lesions in liver at 5000 to 10000 mg/kg,po and measured after 14 days by H and E staining based microscopic analysis; assay type: organism-based; settings: in vivo, 336 h, dose 5000-10000 mg/kg, time 14 day
CWR22R [9] = assay: Induction of apoptosis in human 22Rv1 cells assessed as increase in p53 level at 2 to 8 uM incubated for 24 hrs by Western blot analysis; assay type: functional, cell-based; settings: dose 2-8 µM
[10] = Acute toxicity in ICR mouse assessed as change in heart weight at 1000 to 10000 mg/kg,po and measured after 14 days; assay type: organism-based; settings: in vivo, 336 h, dose 1000-10000 mg/kg, time 14 day
[11] = Acute toxicity in ICR mouse assessed as appearance of lesions in lung at 5000 to 10000 mg/kg,po and measured after 14 days by H and E staining based microscopic analysis; assay type: organism-based; settings: in vivo, 336 h, dose 5000-10000 mg/kg, time 14 day
CWR22R [12] = assay: Induction of apoptosis in human 22Rv1 cells assessed as apoptotis rate at 8 uM incubated for 24 hrs by Annexin V-FITC and PI staining based flow cytometry (Rvb= 3.08%); assay type: functional
[13] = Metabolic stability in human liver microsomes assessed as half life in presence of NADPH incubated up to 60 mins by LC-MS/MS analysis; assay type: ADME, Microsome
DU-145 [14] = assay: Antitumor activity against human DU-145 xenografted in BALB/c nude mouse as upregulation of E-cadherin level in tumor at 100 to 200 mg/kg,po administrated once daily for 21 days by Western blot analysis; assay type: functional, organism-based; settings: dose 100-200 mg/kg, time 21.0 day
CWR22R [15] = assay: Induction of cell cycle arrest in human 22Rv1 cells assessed as accumulation of cells at G2 phase at 2 uM incubated for 24 hrs by propidium iodide based flow cytometric analysis (Rvb=24.21 %); assay type: functional
DU-145 [16] = assay: Antiproliferative activity against human DU-145 cells assessed as reduction in c-Myc expression level at 2 to 8 uM incubated for 24 hrs by Western blot analysis; assay type: functional, cell-based; settings: dose 2-8 µM
CWR22R [17] = assay: Antiproliferative activity against human 22Rv1 cells assessed as cell growth inhibition at 2 to 8 uM incubated for 5 days by microplate reader analysis; assay type: functional, cell-based; settings: dose 2-8 µM, time 5.0 day
CWR22R [18] = assay: Induction of cell cycle arrest in human 22Rv1 cells assessed as accumulation of cells at S phase at 1 uM incubated for 24 hrs by propidium iodide based flow cytometric analysis (Rvb=20.51 %); assay type: functional
CWR22R [19] = assay: Induction of apoptosis in human 22Rv1 cells assessed as apoptotis rate at 4 uM incubated for 24 hrs by Annexin V-FITC and PI staining based flow cytometry (Rvb= 3.08%); assay type: functional
[20] = target: T1, Dual specificity tyrosine-phosphorylation-regulated kinase 2 (Homo sapiens); assay: Inhibition of DYRK2 in human 22Rv1 cells assessed as reduction in 4E-BP1 phosphorylation at 2 to 8 uM incubated for 24 hrs by Western blot analysis; assay type: cell-based; settings: dose 2-8 µM
DU-145 [21] = assay: Induction of cell cycle arrest in human DU-145 cells assessed as accumulation of cells at G2 phase at 1 uM incubated for 24 hrs by propidium iodide based flow cytometric analysis (Rvb= 17.52%); assay type: functional
CWR22R [22] = assay: Induction of cell cycle arrest in human 22Rv1 cells assessed as accumulation of cells at G1 phase at 2 uM incubated for 24 hrs by propidium iodide based flow cytometric analysis (Rvb= 55.28%); assay type: functional
CWR22R [23] = assay: Induction of cell cycle arrest in human 22Rv1 cells assessed as accumulation of cells at G1 phase at 4 uM incubated for 24 hrs by propidium iodide based flow cytometric analysis (Rvb= 55.28%); assay type: functional
[24] = Acute toxicity in ICR mouse assessed as change in spleen weight at 1000 to 10000 mg/kg,po and measured after 14 days; assay type: organism-based; settings: in vivo, 336 h, dose 1000-10000 mg/kg, time 14 day
DU-145 [25] = assay: Induction of apoptosis in human DU-145 cells assessed as apoptotis rate at 2 uM incubated for 24 hrs by Annexin V-FITC and PI staining based flow cytometry (Rvb= 4.36%); assay type: functional
DU-145 [26] = assay: Induction of apoptosis in human DU-145 cells assessed as apoptotis rate at 8 uM incubated for 24 hrs by Annexin V-FITC and PI staining based flow cytometry (Rvb= 4.36%); assay type: functional
CWR22R [27] = assay: Antiproliferative activity against human 22Rv1 cells assessed as reduction in c-Myc expression level at 2 to 8 uM incubated for 24 hrs by Western blot analysis; assay type: functional, cell-based; settings: dose 2-8 µM
CWR22R [28] = assay: Induction of cell cycle arrest in human 22Rv1 cells assessed as accumulation of cells at G2 phase at 4 uM incubated for 24 hrs by propidium iodide based flow cytometric analysis (Rvb=24.21 %); assay type: functional

Cl.O=C(c1ccc(Nc2ncc(F)c(-c3ccc4scnc4c3)n2)nc1)N1CCNCC1
CLint scaled [1]: 16 mL/min/kg | inhibition [2]: Active | Activity (DU-145 [3]): Active | Activity (DU-145 [4]): Active | Activity [5]: Non-Toxic | Activity (DU-145 [6]): 61.07% | solubility thermodynamic [7]: 29.5 mg/mL | Activity [8]: Non-Toxic | Activity (CWR22R [9]): Active | Activity [10]: Non-Toxic | Activity [11]: Non-Toxic | Activity (CWR22R [12]): 24.04% | half-life [13]: 1.3 h | Activity (DU-145 [14]): Active | Activity (CWR22R [15]): 22.88% | Activity (DU-145 [16]): Active | Activity (CWR22R [17]): Active | Activity (CWR22R [18]): 16.48% | Activity (CWR22R [19]): 21.78% | inhibition [20]: Active | Activity (DU-145 [21]): 17.18% | Activity (CWR22R [22]): 62.88% | Activity (CWR22R [23]): 66.73% | Activity [24]: Non-Toxic | Activity (DU-145 [25]): 6.73% | Activity (DU-145 [26]): 11.98% | Activity (CWR22R [27]): Active | Activity (CWR22R [28]): 19.42%
